Structures can show the parent of a compound that is named as a salt.
What was measured:
NS5B polymerase = NS5B polymerase (Hepatitis C virus genotype 1b, UniProt P26663); assay: biochemical; conditions: NS5B polymerase inhibition; 20 nM enzyme, 75 min at 28° C.
Experimental: Compounds were tested for HCV polymerase inhibition. Assays were performed in a 96-well streptavidin-coated FlashPlate using 20 nM enzyme, 0.5 μCi of [α-^33P]GTP, 0.6 μM GTP, and 250 nM 5′biotinylated oligo (rG13)/poly rC in 20 mM Tris-HCl, pH 7.5, 5 mM MgCl2, 5 mM dithiothreitol, 0.1 g/L bovine serum albumin, and 100 U/mL RNAse inhibitor. The reaction was stopped by aspiration after 75 min at 28° C. and the plate was washed several times. After washing and drying the plate, incorporated radioactivity was counted using a Microbeta scintillation counter. IC50 values were calculated relative to the uninhibited control and inhibition data were fitted to a 4-parameter IC50 equation.

NS5B polymerase, sequence (P26663 2420-3010): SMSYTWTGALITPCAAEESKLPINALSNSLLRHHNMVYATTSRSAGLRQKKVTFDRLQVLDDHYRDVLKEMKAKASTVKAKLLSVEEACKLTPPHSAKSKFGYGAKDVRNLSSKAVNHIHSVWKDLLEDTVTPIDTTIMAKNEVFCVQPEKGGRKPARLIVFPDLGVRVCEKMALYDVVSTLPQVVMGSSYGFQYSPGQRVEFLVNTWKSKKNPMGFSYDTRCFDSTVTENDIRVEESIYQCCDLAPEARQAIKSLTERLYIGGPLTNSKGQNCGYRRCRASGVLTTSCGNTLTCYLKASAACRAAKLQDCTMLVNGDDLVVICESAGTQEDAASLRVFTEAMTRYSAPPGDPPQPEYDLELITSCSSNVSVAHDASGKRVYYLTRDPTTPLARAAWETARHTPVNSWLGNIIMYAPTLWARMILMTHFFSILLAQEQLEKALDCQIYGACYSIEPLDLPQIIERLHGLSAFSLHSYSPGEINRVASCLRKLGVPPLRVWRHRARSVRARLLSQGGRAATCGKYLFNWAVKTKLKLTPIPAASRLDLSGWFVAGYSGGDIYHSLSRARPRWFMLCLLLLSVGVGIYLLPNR

| melting point [°C] | IC50 (NS5B polymerase) [nM] | SMILES |
| --- | --- | --- |
| 203.8 to 205.7 |  | CN1N(CCC(C)(C)C)C(=O)C(C2=NS(=O)(=O)c3cc(NS(C)(=O)=O)ccc3N2)=C(O)C12CCCC2 (as salt: trifluoroacetic acid salt) [Example 5, N-{3-[7-(3,3-Dimethyl-butyl)-10-hydroxy-6-methyl-8-oxo-6,7-diaza-spiro[4.5]dec-9-en-9-yl]-1,1-dioxo-1,4-dihydro-1λ^6-benzo[1,2,4]thiadiazin-7-yl}-methanesulfonamide] |
|  | < 20 | CS(=O)(=O)Nc1ccc2c(c1)S(=O)(=O)N=C(C1=C(O)C3CCCCN3N(Cc3ccc(F)cc3)C1=O)N2 (stereo not drawn) [Example 1, N-{3-[1-(4-Fluoro-benzyl)-4-hydroxy-2-oxo-2,4a,5,6,7,8-hexahydro-1H-pyrido[1,2-b]pyridazin-3-yl]-1,1-dioxo-1,4-dihydro-1λ^6-benzo[1,2,4]thiadiazin-7-yl}-methanesulfonamide] |
|  | < 20 | CS(=O)(=O)Nc1ccc2c(c1)S(=O)(=O)N=C(C1=C(O)C3CCCN3N(Cc3ccc(F)cc3)C1=O)N2 (stereo not drawn) [Example 7, N-{3-[1-(4-Fluoro-benzyl)-4-hydroxy-2-oxo-1,2,4a,5,6,7-hexahydro-pyrrolo[1,2-b]pyridazin-3-yl]-1,1-dioxo-1,4-dihydro-1λ^6-benzo[1,2,4]thiadiazin-7-yl}-methanesulfonamide] |
|  | 20 to 200 | CC(C)(C)CCN1C(=O)C(C2=NS(=O)(=O)c3cc(NS(C)(=O)=O)ccc3N2)=C(O)C2CCCCN21 (stereo not drawn) [Example 2, N-{3-[1-(3,3-Dimethyl-butyl)-4-hydroxy-2-oxo-2,4a,5,6,7,8-hexahydro-1H-pyrido[1,2-b]pyridazin-3-yl]-1,1-dioxo-1,4-dihydro-1λ^6-benzo[1,2,4]thiadiazin-7-yl}-methanesulfonamide] |
|  | < 20 | CC(C)(C)CCN1C(=O)C(C2=NS(=O)(=O)c3cc(NS(C)(=O)=O)ccc3N2)=C(O)C2CCCN21 (stereo not drawn) [Example 3, N-{3-[1-(3,3-Dimethyl-butyl)-4-hydroxy-2-oxo-1,2,4a,5,6,7-hexahydro-pyrrolo[1,2-b]pyridazin-3-yl]-1,1-dioxo-1,4-dihydro-1λ^6-benzo[1,2,4]thiadiazin-7-yl}-methanesulfonamide] |
|  | 20 to 200 | CS(=O)(=O)Nc1ccc2c(c1)S(=O)(=O)N=C(C1=C(O)[C@@H]3C4CCC(CC4)N3N(Cc3ccc(F)cc3)C1=O)N2 [Example 11, (7S)-N-{3-[3-(4-Fluoro-benzyl)-6-hydroxy-4-oxo-2,3-diaza-tricyclo[6.2.2.0^2,7]dodec-5-en-5-yl]-1,1-dioxo-1,4-dihydro-1λ^6-benzo[1,2,4]thiadiazin-7-yl}-methanesulfonamide] |
|  | 200 to 3000 | CN1N(CCC(C)(C)C)C(=O)C(C2=NS(=O)(=O)c3cc(NS(C)(=O)=O)ccc3N2)=C(O)C12CCCC2 [Example 5, N-{3-[7-(3,3-Dimethyl-butyl)-10-hydroxy-6-methyl-8-oxo-6,7-diaza-spiro[4.5]dec-9-en-9-yl]-1,1-dioxo-1,4-dihydro-1λ^6-benzo[1,2,4]thiadiazin-7-yl}-methanesulfonamide] |
|  | 20 to 200 | CS(=O)(=O)Nc1ccc2c(c1)S(=O)(=O)N=C(C1=C(O)[C@]34C[C@H]3CCN4N(Cc3ccc(F)cc3)C1=O)N2 [Example 12, (1aR,7aS)-N-{3-[4-(4-Fluoro-benzyl)-7-hydroxy-5-oxo-1,1a,2,3,4,5-hexahydro-3a,4-diaza-cyclopropa[c]inden-6-yl]-1,1-dioxo-1,4-dihydro-1λ^6-benzo[1,2,4]thiadiazin-7-yl}-methanesulfonamide] |
|  | < 20 | CC(C)CCN1C(=O)C(C2=NS(=O)(=O)c3cc(NS(C)(=O)=O)ccc3N2)=C(O)C2CCCN21 (stereo not drawn) [Example 6, N-{3-[4-Hydroxy-1-(3-methyl-butyl)-2-oxo-1,2,4a,5,6,7-hexahydro-pyrrolo[1,2-b]pyridazin-3-yl]-1,1-dioxo-1,4-dihydro-1λ^6-benzo[1,2,4]thiadiazin-7-yl}-methanesulfonamide] |
|  | 20 to 200 | CC(C)(C)CCN1C(=O)C(C2=NS(=O)(=O)c3cc(NS(C)(=O)=O)ccc3N2)=C(O)C2(C)CCCN12 (stereo not drawn) [Example 4, N-{3-[1-(3,3-Dimethyl-butyl)-4-hydroxy-4a-methyl-2-oxo-1,2,4a,5,6,7-hexahydro-pyrrolo[1,2-b]pyridazin-3-yl]-1,1-dioxo-1,4-dihydro-1λ^6-benzo[1,2,4]thiadiazin-7-yl}-methanesulfonamide] |

| SMILES | melting point [°C] | IC50 (NS5B polymerase) [nM] |
| --- | --- | --- |
| CS(=O)(=O)Nc1ccc2c(c1)S(=O)(=O)N=C(C1=C(O)C3C4CCC(C4)N3N(Cc3ccc(F)cc3)C1=O)N2 (stereo not drawn) [Example 9, N-{3-[3-(4-Fluoro-benzyl)-6-hydroxy-4-oxo-2,3-diaza-tricyclo[6.2.1.0^2,7]undec-5-en-5-yl]-1,1-dioxo-1,4-dihydro-1λ^6-benzo[1,2,4]thiadiazin-7-yl}-methanesulfonamide] |  | < 20 |
| CS(=O)(=O)Nc1ccc2c(c1)S(=O)(=O)N=C(C1=C(O)C3CC4CCCC4N3N(C3CCCCC3)C1=O)N2 (single isomer, unassigned) [10 Isomer 1] |  | 200 to 3000 |

Reference: patent US20080214529A1, “SATURATED FUSED [1,2-b]PYRIDAZINONE COMPOUNDS” (priority 2006, published 2008)
